Calls of active or inactive are those of the source. The rule behind the calls is not given here.
Legend:
[1] = biological target: T1, Calcitonin gene-related peptide type 1 receptor (Homo sapiens, UniProt O60894+Q16602); experiment: Activity at CGRP receptor assessed as inhibition of CGRP-stimulated cAMP production; assay type: functional
[2] = biological target: T1, Calcitonin gene-related peptide type 1 receptor; experiment: (§1) Displacement of [125I]CGRP from human recombinant CGRP receptor
[3] = biological target: Calcitonin gene-related peptide type 1 receptor (Homo sapiens) (UniProt Q16602); experiment: as §1
Calcitonin gene-related peptide type 1 receptor (Homo sapiens), sequence (Q16602 whole entry): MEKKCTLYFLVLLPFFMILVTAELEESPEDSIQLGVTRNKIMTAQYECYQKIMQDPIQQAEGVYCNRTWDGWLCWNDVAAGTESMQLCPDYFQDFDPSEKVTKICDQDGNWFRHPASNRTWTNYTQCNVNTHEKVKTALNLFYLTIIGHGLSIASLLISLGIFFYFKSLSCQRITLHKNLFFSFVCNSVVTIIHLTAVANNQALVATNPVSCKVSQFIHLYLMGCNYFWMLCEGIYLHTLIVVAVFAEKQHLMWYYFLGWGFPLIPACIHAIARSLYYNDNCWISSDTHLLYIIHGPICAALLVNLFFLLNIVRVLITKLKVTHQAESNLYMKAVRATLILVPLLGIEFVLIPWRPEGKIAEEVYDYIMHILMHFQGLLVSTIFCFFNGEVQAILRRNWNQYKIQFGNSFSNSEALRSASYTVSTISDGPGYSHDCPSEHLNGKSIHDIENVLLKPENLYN

T1 sequence (Q16602 whole entry, one chain of several): as the sequence (Q16602 whole entry) above

Molecule `O=C(N[C@@H]1N=C(c2ccccc2)c2ccccc2N(CC(F)(F)F)C1=O)N1CCC(N2CC(c3ccncc3)NC2=O)CC1` (stereo partly specified) has an IC50 [1] of 0.804 µM and a Ki [2] of 0.72 µM.
For `O=C(N[C@@H]1N=C(c2ccccc2)c2ccccc2N(CC(F)(F)F)C1=O)N1CCC(n2c(=O)[nH]c3ccncc32)CC1`, the IC50 [1] was 1.4 µM and the Ki [2] was 0.853 µM.
Work on `O=C(N[C@@H]1N=C(c2ccccc2)c2ccccc2N(CC(F)(F)F)C1=O)N1CCC(N2CC(c3ccccn3)NC2=O)CC1` (stereo partly specified) yielded a Ki [2] of 2 µM.
With `O=C(N[C@@H]1N=C(c2ccccc2)c2ccccc2N(CC(F)(F)F)C1=O)N1CCC(n2c(O)nc3cccc(Cl)c32)CC1` the Ki [2] was 6.4 µM.
`Cc1cccc2c1nc(O)n2C1CCN(C(=O)N[C@@H]2N=C(c3ccccc3)c3ccccc3N(CC(F)(F)F)C2=O)CC1` was tested, and the Ki [2] was 6.9 µM.
Work on `O=C(N[C@@H]1N=C(c2ccccc2)c2ccccc2N(CC(F)(F)F)C1=O)N1CCC(n2c(=O)[nH]c3ccc(F)cc32)CC1` yielded an IC50 [1] of 1.4 µM and a Ki [2] of 0.983 µM.
`O=C(N[C@@H]1N=C(c2ccccc2)c2ccccc2N(CC(F)(F)F)C1=O)N1CCC(n2c(=O)[nH]c3cnccc32)CC1` was tested, and the IC50 [1] was 1.38 µM and the Ki [2] was 0.685 µM.
`O=C(N[C@@H]1N=C(c2ccccc2)c2ccccc2N(CC(F)(F)F)C1=O)N1CCC(n2c(=O)[nH]c3cccnc32)CC1` showed an IC50 [1] of 1.14 µM and a Ki [2] of 0.427 µM.
In the case of `O=C(N[C@@H]1N=C(c2ccccc2)c2ccccc2N(CC(F)(F)F)C1=O)N1CCC(n2cc(-c3ccc(OC(F)F)cc3)nc2O)CC1`, the IC50 [1] is reported as 0.074 µM and the Ki [2] is reported as 0.019 µM.
With `O=C(N[C@@H]1N=C(c2ccccc2)c2ccccc2N(CC(F)(F)F)C1=O)N1CCC(n2cc[nH]c2=O)CC1` the IC50 [1] was 0.672 µM and the Ki [2] was 0.583 µM.
Work on `Cc1ccc2c(c1)[nH]c(=O)n2C1CCN(C(=O)N[C@@H]2N=C(c3ccccc3)c3ccccc3N(CC(F)(F)F)C2=O)CC1` yielded a Ki [2] of 6.1 µM.
With `O=C(N[C@@H]1N=C(c2ccccc2)c2ccccc2N(CC(F)(F)F)C1=O)N1CCC(n2c(O)nc3c(F)cccc32)CC1` the IC50 [1] was 0.373 µM and the Ki [2] was 0.375 µM.
Molecule `O=C(N[C@@H]1N=C(c2ccccc2)c2ccccc2N(CC(F)(F)F)C1=O)N1CCC(N2CC(c3ccccc3)NC2=O)CC1` (stereo partly specified) has an IC50 [1] of 0.79 µM and a Ki [2] of 0.339 µM.
Work on `O=C(N[C@@H]1N=C(c2ccccc2)c2ccccc2N(CC(F)(F)F)C1=O)N1CCC(N2Cc3cnccc3NC2=O)CC1` yielded an IC50 [1] of 0.627 µM and a Ki [2] of 0.32 µM.
For `O=C(N[C@@H]1N=C(c2ccccc2)c2ccccc2N(CC(F)(F)F)C1=O)N1CCC(n2c(=O)[nH]c3c4ccccc4ccc32)CC1`, the IC50 [1] was 0.369 µM and the Ki [2] was 0.027 µM.
Work on `N#Cc1cn(C2CCN(C(=O)N[C@@H]3N=C(c4ccccc4)c4ccccc4N(CC(F)(F)F)C3=O)CC2)c(=O)[nH]1` yielded an IC50 [1] of 0.99 µM and a Ki [2] of 0.575 µM.
For `O=C(N[C@@H]1N=C(c2ccccc2)c2ccccc2N(CC(F)(F)F)C1=O)N1CCC(n2c(O)nc3cc(F)ccc32)CC1`, the Ki [2] was 2.8 µM.
For `COc1cccc(-c2cn(C3CCN(C(=O)N[C@@H]4N=C(c5ccccc5)c5ccccc5N(CC(F)(F)F)C4=O)CC3)c(O)n2)c1`, the IC50 [1] was 0.0051 µM and the Ki [2] was 0.0011 µM.
`Cc1ccc(-c2cn(C3CCN(C(=O)N[C@@H]4N=C(c5ccccc5)c5ccccc5N(CC(F)(F)F)C4=O)CC3)c(=O)[nH]2)cc1` gave an IC50 [1] of 0.085 µM and a Ki [2] of 0.0063 µM.
Molecule `O=C(N[C@@H]1N=C(c2ccccc2)c2ccccc2N(CC(F)(F)F)C1=O)N1CCC(N2Cc3ncccc3NC2=O)CC1` has an IC50 [1] of 1.84 µM and a Ki [2] of 0.965 µM.
`O=C(N[C@@H]1N=C(c2ccccc2)c2ccccc2N(CC(F)(F)F)C1=O)N1CCC(n2c(=O)[nH]c3nccnc32)CC1` showed an IC50 [1] of 0.286 µM and a Ki [2] of 0.156 µM.
Molecule `CC(C)c1cn(C2CCN(C(=O)N[C@@H]3N=C(c4ccccc4)c4ccccc4N(CC(F)(F)F)C3=O)CC2)c(=O)[nH]1` has a Ki [2] of 5.34 µM.
With `O=C(N[C@@H]1N=C(c2ccccc2)c2ccccc2N(CC(F)(F)F)C1=O)N1CCC(n2c(=O)[nH]c3ncccc32)CC1` the IC50 [1] was 0.049 µM and the Ki [2] was 0.023 µM.
`NC(=O)c1ccc2c(c1)[nH]c(=O)n2C1CCN(C(=O)N[C@@H]2N=C(c3ccccc3)c3ccccc3N(CC(F)(F)F)C2=O)CC1` gave a Ki [2] of 1.05 µM.
`O=C(N[C@@H]1N=C(c2ccccc2)c2ccccc2N(CC(F)(F)F)C1=O)N1CCC(n2cc(-c3ccc(F)cc3)[nH]c2=O)CC1` gave an IC50 [1] of 0.107 µM and a Ki [2] of 0.011 µM.
`O=C(N[C@@H]1N=C(c2ccccc2)c2ccccc2N(CC(F)(F)F)C1=O)N1CCC(n2cc(-c3ccc(OC(F)(F)F)cc3)[nH]c2=O)CC1` gave an IC50 [1] of 0.431 µM and a Ki [2] of 0.104 µM.
`O=C(N[C@@H]1N=C(c2ccccc2)c2ccccc2N(CC(F)(F)F)C1=O)N1CCC(N2C(=O)NCc3ccccc32)CC1` was tested, and the Activity [3] was “inactive”.
`O=C(O)c1cn(C2CCN(C(=O)N[C@@H]3N=C(c4ccccc4)c4ccccc4N(CC(F)(F)F)C3=O)CC2)c(=O)[nH]1` showed a Ki [2] of 2.9 µM.
Molecule `O=C1CN(C2CCN(C(=O)N[C@@H]3N=C(c4ccccc4)c4ccccc4N(CC(F)(F)F)C3=O)CC2)C(=O)N1` has an IC50 [1] of 0.1 µM and a Ki [2] of 0.029 µM.
Work on `O=C(N[C@@H]1N=C(c2ccccc2)c2ccccc2N(CC(F)(F)F)C1=O)N1CCC(n2c(O)nc3cc(Cl)ccc32)CC1` yielded a Ki [2] greater than 10 µM.
With `CS(=O)(=O)c1ccc2c(c1)[nH]c(=O)n2C1CCN(C(=O)N[C@@H]2N=C(c3ccccc3)c3ccccc3N(CC(F)(F)F)C2=O)CC1` the IC50 [1] was 0.22 µM and the Ki [2] was 0.26 µM.
Molecule `O=C(O)c1ccc2c(c1)[nH]c(=O)n2C1CCN(C(=O)N[C@@H]2N=C(c3ccccc3)c3ccccc3N(CC(F)(F)F)C2=O)CC1` has an IC50 [1] of 0.715 µM and a Ki [2] of 0.81 µM.
For `O=C(N[C@@H]1N=C(c2ccccc2)c2ccccc2N(CC(F)(F)F)C1=O)N1CCC(N2Cc3ccccc3NC2=O)CC1`, the IC50 [1] was 0.034 µM and the Ki [2] was 0.048 µM.
In the case of `O=C(N[C@@H]1N=C(c2ccccc2)c2ccccc2N(CC(F)(F)F)C1=O)N1CCC(n2nc(-c3ccccc3)[nH]c2=O)CC1`, the IC50 [1] is reported as 0.1 µM and the Ki [2] is reported as 0.026 µM.
For `COC(=O)c1cn(C2CCN(C(=O)N[C@@H]3N=C(c4ccccc4)c4ccccc4N(CC(F)(F)F)C3=O)CC2)c(=O)[nH]1`, the IC50 [1] was 0.156 µM and the Ki [2] was 0.11 µM.
`O=C(N[C@@H]1N=C(c2ccccc2)c2ccccc2N(CC(F)(F)F)C1=O)N1CCC(N2CC(c3cccnc3)NC2=O)CC1` (stereo partly specified) was tested, and the Ki [2] was 1.05 µM.
In the case of `Cc1cccc2nc(O)n(C3CCN(C(=O)N[C@@H]4N=C(c5ccccc5)c5ccccc5N(CC(F)(F)F)C4=O)CC3)c12`, the Ki [2] is reported as 20 µM.
For `O=C(N[C@@H]1N=C(c2ccccc2)c2ccccc2N(CC(F)(F)F)C1=O)N1CCC(n2c(O)nc3cc(C(F)(F)F)ccc32)CC1`, the Ki [2] was 3.8 µM.
With `O=C(N[C@@H]1N=C(c2ccccc2)c2ccccc2N(CC(F)(F)F)C1=O)N1CCC(n2cc(-c3cccc(F)c3)nc2O)CC1` the IC50 [1] was 0.046 µM and the Ki [2] was 0.011 µM.
With `O=C(N[C@@H]1N=C(c2ccccc2)c2ccccc2N(CC(F)(F)F)C1=O)N1CCC(n2c(=O)[nH]c3ccccc32)CC1` the Ki [2] was 2.25 µM.
In the case of `O=C(N[C@@H]1N=C(c2ccccc2)c2ccccc2N(CC(F)(F)F)C1=O)N1CCC(n2cc(Cc3ccccc3)[nH]c2=O)CC1`, the IC50 [1] is reported as 0.45 µM and the Ki [2] is reported as 1.13 µM.
Molecule `O=C(N[C@@H]1N=C(c2ccccc2)c2ccccc2N(CC(F)(F)F)C1=O)N1CCC(N2Cc3cccnc3NC2=O)CC1` has an IC50 [1] of 0.616 µM and a Ki [2] of 0.295 µM.
With `O=C(N[C@@H]1N=C(c2ccccc2)c2ccccc2N(CC(F)(F)F)C1=O)N1CCC(n2c(O)nc3c(Cl)cccc32)CC1` the IC50 [1] was 0.446 µM and the Ki [2] was 0.143 µM.
`O=C(N[C@@H]1N=C(c2ccccc2)c2ccccc2N(CC(F)(F)F)C1=O)N1CCC(n2cc(CO)[nH]c2=O)CC1` showed a Ki [2] of 20 µM.
`O=C(N[C@@H]1N=C(c2ccccc2)c2ccccc2N(CC(F)(F)F)C1=O)N1CCC(n2c(=O)[nH]c3ncncc32)CC1` gave an IC50 [1] of 0.43 µM and a Ki [2] of 0.051 µM.
In the case of `O=C(N[C@@H]1N=C(c2ccccc2)c2ccccc2N(CC(F)(F)F)C1=O)N1CCC(n2cc(-c3ccccn3)[nH]c2=O)CC1`, the IC50 [1] is reported as 0.037 µM and the Ki [2] is reported as 0.027 µM.
`O=C(N[C@@H]1N=C(c2ccccc2)c2ccccc2N(CC(F)(F)F)C1=O)N1CCC(n2c(O)nc3c2ccc[n+]3[O-])CC1` gave a Ki [2] of 1 µM.
With `O=C(N[C@@H]1N=C(c2ccccc2)c2ccccc2N(CC(F)(F)F)C1=O)N1CCC(N2Cc3ccncc3NC2=O)CC1` the IC50 [1] was 0.224 µM and the Ki [2] was 0.35 µM.
For `COc1ccc(-c2cn(C3CCN(C(=O)N[C@@H]4N=C(c5ccccc5)c5ccccc5N(CC(F)(F)F)C4=O)CC3)c(=O)[nH]2)cc1`, the IC50 [1] was 0.193 µM and the Ki [2] was 0.205 µM.
For `O=C(N[C@@H]1N=C(c2ccccc2)c2ccccc2N(CC(F)(F)F)C1=O)N1CCC(n2cc(-c3ccccc3)[nH]c2=O)CC1`, the IC50 [1] was 0.014 µM and the Ki [2] was 0.011 µM.
In the case of `O=C(N[C@@H]1N=C(c2ccccc2)c2ccccc2N(CC(F)(F)F)C1=O)N1CCC(N2CCNC2=O)CC1`, the IC50 [1] is reported as 3.1 µM and the Ki [2] is reported as 0.855 µM.

Reference: ChEMBL document CHEMBL1149493, “Benzodiazepine calcitonin gene-related peptide (CGRP) receptor antagonists: optimization of the 4-substituted piperidine” (Bioorg Med Chem Lett, 2006)
